Measurements as given in PMC10300102, “In vivo inhibition of nuclear ACE2 translocation protects against SARS-CoV-2 replication and lung damage through epigenetic imprinting” (Nature Communications, 2023).
Structures can show the parent of a compound that is named as a salt. Where two headings read alike, the source gives them in different places.

Experiment: In vitro monkey plasma assay
Type: in vitro ADME, cynomolgus monkey
Details: for remaining at 0.25 h, 2 µM: time 15 min; for remaining at 0.5 h, 2 µM: time 30 min; for remaining at 1 h, 2 µM: time 60 min; for remaining at 2 h, 2 µM: time 120 min
Procedure: Briefly, pooled frozen plasma was thawed at 37 °C prior to experiments. Plasma was centrifuged at 3720 x g for 5 min and any clots were removed. All blanks and working solutions were aliquoted on an Apricot automation workstation (2 μL/well of working solution (100 μM) with 98 μL plasma for NACE2i peptide (CP300638) and control compounds somatostatin acetate and procaine hydrochloride). All reaction plates containing mixtures of NACE2i, somatostatin acetate, and procaine hydrochloride and plasma were incubated at 37 °C in a water bath for 0, 15, 30, 60, 120, 240, and 360 min. Incubation was stopped with 4% H3PO4 and stop solution (200 ng/mL tolbutamide and 200 ng/mL labetalol in MeOH) to precipitate protein. Each plate was sealed and shaken for 20 min and then centrifuged at 3720 x g at 4 °C for 20 min. After centrifugation, the Apricot workstation was used to transfer 150 μL supernatant to each bioanalysis plate, which was then sealed and shaken for 10 min prior to LC-MS/MS analysis as per the manufacturer’s guidelines. LC: Shimadzu LC 30-AD, MS: QTRAP 6500 + , Autosampler: CTC PAL.

[1] = male, monkey, pooled plasma, cynomolgus monkey plasma, n=2
[2] = monkey, plasma (pooled, frozen), cynomolgus monkey plasma, n=2

| SMILES | % Remaining (cynomolgus monkey plasma, time 0 min, n=2) | remaining at 0.25 h, 2 µM [1] | remaining at 0.5 h, 2 µM [1] | remaining at 1 h, 2 µM [1] | remaining at 2 h, 2 µM [1] | remaining at 6 h, 2 µM (male, monkey, pooled plasma, cynomolgus monkey plasma, time 360 min, n=2, read-out: % Remaining) | remaining at 6 h, 2 µM (male, monkey, pooled plasma, pooled male cynomolgus monkey plasma, 2 µL of 100 µM working solution + 98 µL plasma, 37 °C, 360 min, LC-MS/MS, read-out: % remaining in plasma after 360 min incubation) | remaining at 0.25 h, 2 µM [2] | remaining at 0.5 h, 2 µM [2] | remaining at 1 h, 2 µM [2] | remaining at 2 h, 2 µM [2] | remaining at 4 h, 2 µM (monkey, plasma (pooled, frozen), cynomolgus monkey plasma, time 240 min, n=2) | remaining at 6 h, 2 µM (monkey, plasma (pooled, frozen), cynomolgus monkey plasma, time 360 min, n=2, read-out: % Remaining) | % remaining in plasma after 360 min incubation (pooled male cynomolgus monkey plasma, 2 µL of 100 µM working solution + 98 µL plasma, 37 °C, 360 min, LC-MS/MS) |
| --- | --- | --- | --- | --- | --- | --- | --- | --- | --- | --- | --- | --- | --- | --- |
| CCN(CC)CCOC(=O)c1ccc(N)cc1 [procaine hydrochloride, reference compound] | 100% | 27.3% | 3.07% | 0.813% | 0.381% | 0.0209% | 0% |  |  |  |  |  |  |  |
| C[C@H](N)C(=O)NCC(=O)N[C@H]1CSSC[C@@H](C(=O)O)NC(=O)[C@H](CO)NC(=O)[C@H]([C@@H](C)O)NC(=O)[C@H](Cc2ccccc2)NC(=O)[C@H]([C@@H](C)O)NC(=O)[C@H](CCCCN)NC(=O)[C@H](Cc2c[nH]c3ccccc23)NC(=O)[C@H](Cc2ccccc2)NC(=O)[C@H](Cc2ccccc2)NC(=O)[C@H](CC(N)=O)NC(=O)[C@H](CCCCN)NC1=O [somatostatin acetate, reference compound] |  |  |  |  |  |  |  | 77.1% | 61.3% | 50.2% | 29% | 18.1% | 3.81% | 3.8% |
